Test results reported in PubChem BioAssay AID248 (DTP/NCI, 2004).
“And” between values parts separate entries of the source, which are not always exact repeats. Equal entries are not always repeated. Toxic doses and inconclusive results are not listed. Rule as the data show it: active = T/C of 150% or more; inactive = T/C below 125%.

System: L1210 leukemia ip in BDF1 mice, survival T/C
Experiment: NCI In Vivo Anticancer Drug Screen. Data for tumor model L1210 Leukemia (intraperitoneal) in B6D2F1 (BDF1) mice
Details: endpoint: mean survival time, higher = longer survival
How it was run: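 Transplantable tumor model; survival measured in treated vs vehicle control mice. Value = treated/control.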

[1] = dose: 12.5 mg/kg/injection, schedule: Q01DX009 (ip), vehicle: saline
[2] = dose: 100.0 mg/kg/injection, schedule: Q01DX009 (ip), vehicle: saline with Tween-80
[3] = dose: 100.0 mg/kg/injection, schedule: Q04DX003 (ip), vehicle: Klucel (hydroxypropylcellulose) (HPC)
[4] = dose: 200.0 mg/kg/injection, schedule: Q01DX009 (ip), vehicle: saline with Tween-80
[5] = dose: 200.0 mg/kg/injection, schedule: Q04DX003 (ip), vehicle: Klucel (hydroxypropylcellulose) (HPC)
[6] = dose: 400.0 mg/kg/injection, schedule: Q01DX009 (ip), vehicle: saline with Tween-80
[7] = dose: 400.0 mg/kg/injection, schedule: Q04DX003 (ip), vehicle: Klucel (hydroxypropylcellulose) (HPC)
[8] = dose: 100.0 mg/kg/injection, schedule: Q04DX003 (ip), vehicle: saline with Tween-80
[9] = dose: 200.0 mg/kg/injection, schedule: Q04DX003 (ip), vehicle: saline with Tween-80
[10] = dose: 400.0 mg/kg/injection, schedule: Q04DX003 (ip), vehicle: saline with Tween-80
[11] = dose: 100.0 mg/kg/injection, schedule: Q01DX009 (ip), vehicle: Klucel (hydroxypropylcellulose) (HPC)
[12] = dose: 200.0 mg/kg/injection, schedule: Q01DX009 (ip), vehicle: Klucel (hydroxypropylcellulose) (HPC)
[13] = dose: 400.0 mg/kg/injection, schedule: Q01DX009 (ip), vehicle: Klucel (hydroxypropylcellulose) (HPC)
[14] = dose: 25.0 mg/kg/injection, schedule: Q01DX009 (ip), vehicle: saline with Tween-80
[15] = dose: 50.0 mg/kg/injection, schedule: Q01DX009 (ip), vehicle: saline with Tween-80

Measured: T/C

O=C(c1ccccc1)C1CCCC1
inactive: dose: 100.0 mg/kg/injection, schedule: Q04DX002 (ip), vehicle: Klucel (hydroxypropylcellulose) (HPC) 89 % of control | dose: 200.0 mg/kg/injection, schedule: Q04DX002 (ip), vehicle: Klucel (hydroxypropylcellulose) (HPC) 105 % of control

O=[N+]([O-])c1ccc(OCCC[P+](c2ccccc2)(c2ccccc2)c2ccccc2)c(Cl)c1
inactive: dose: 3.12 mg/kg/injection, schedule: Q01DX009 (ip), vehicle: saline 98 % of control | dose: 6.25 mg/kg/injection, schedule: Q01DX009 (ip), vehicle: saline 95 % of control | dose: 6.25 mg/kg/injection, schedule: Q04DX003 (ip), vehicle: saline 94 % of control | [1] 86 % of control and 87 % of control | dose: 12.5 mg/kg/injection, schedule: Q04DX003 (ip), vehicle: saline 92 % of control | dose: 25.0 mg/kg/injection, schedule: Q04DX003 (ip), vehicle: saline 90 % of control

O=C1CCC(=O)N1CC(O)COc1ccccc1 (centres undefined)
inactive: [2] 101 % of control | [3] 93 % of control | [4] 101 % of control | [5] 97 % of control | [6] 110 % of control | [7] 106 % of control

CSCCC(NC(=O)c1ccccc1)C(N)=O (centres undefined)
inactive: [2] 90 % of control | [4] 89 % of control

CCCCC(CC)(CC)OC(=O)c1ccc([N+](=O)[O-])cc1
inactive: dose: 100.0 mg/kg/injection, schedule: Q04DX002 (ip), vehicle: saline with Tween-80 87 % of control | dose: 200.0 mg/kg/injection, schedule: Q04DX002 (ip), vehicle: saline with Tween-80 106 % of control | dose: 400.0 mg/kg/injection, schedule: Q04DX002 (ip), vehicle: saline with Tween-80 98 % of control

S=P1(c2ccccc2)Nc2cc3ccccc3cc2N1
inactive: [8] 97 % of control | [9] 100 % of control | [10] 96 % of control

CCNc1ncnc2c1c(C(N)=S)cn2C1OC(CO)C(O)C1O (centres undefined)
inactive: dose: 12.5 mg/kg/injection, schedule: Q01DX005 (ip), vehicle: saline 111 % of control and 113 % of control | dose: 12.5 mg/kg/injection, schedule: Q01DX009 (ip), vehicle: Klucel (hydroxypropylcellulose) (HPC) 109 % of control | [1] 111 % of control | dose: 25.0 mg/kg/injection, schedule: Q01DX005 (ip), vehicle: saline 105 % of control and 124 % of control | dose: 25.0 mg/kg/injection, schedule: Q01DX009 (ip), vehicle: Klucel (hydroxypropylcellulose) (HPC) 91 % of control | dose: 25.0 mg/kg/injection, schedule: Q01DX009 (ip), vehicle: saline 112 % of control

CCN(Cc1ccccc1)C(=O)Nc1ccc(OC)cc1
inactive: [11] 103 % of control | [12] 97 % of control | [13] 106 % of control

O=C(/C(=N/O)c1ccc(Cl)cc1)c1ccccc1
inactive: dose: 50.0 mg/kg/injection, schedule: Q01DX009 (ip), vehicle: Klucel (hydroxypropylcellulose) (HPC) 89 % of control | dose: 75.0 mg/kg/injection, schedule: Q01DX001 (ip), vehicle: Klucel (hydroxypropylcellulose) (HPC) 89 % of control | [11] 96 % of control | dose: 150.0 mg/kg/injection, schedule: Q01DX001 (ip), vehicle: Klucel (hydroxypropylcellulose) (HPC) 100 % of control | [12] 107 % of control | dose: 300.0 mg/kg/injection, schedule: Q01DX001 (ip), vehicle: Klucel (hydroxypropylcellulose) (HPC) 98 % of control

CC(=O)c1ccc(NC(=O)C(F)(F)F)cc1
inactive: dose: 50.0 mg/kg/injection, schedule: Q01DX001 (ip), vehicle: carboxymethylcellulose (CMC) 101 % of control | dose: 100.0 mg/kg/injection, schedule: Q01DX001 (ip), vehicle: carboxymethylcellulose (CMC) 95 % of control | dose: 200.0 mg/kg/injection, schedule: Q01DX001 (ip), vehicle: carboxymethylcellulose (CMC) 97 % of control | dose: 400.0 mg/kg/injection, schedule: Q01DX001 (ip), vehicle: carboxymethylcellulose (CMC) 92 % of control

CCCCCCCCCCCCCCCCOc1cccc(C=O)c1
inactive: [8] 97 % of control | [9] 93 % of control | [10] 116 % of control

O=S1(=O)C2CCC(C2)C1Cl (centres undefined)
inactive: [14] 102 % of control | [15] 101 % of control

OC(C/C(Cc1ccccc1)=N/Nc1ccccc1)(C(F)(F)F)C(F)(F)F
inactive: [11] 94 % of control | [3] 96 % of control | [12] 96 % of control | [5] 88 % of control | [13] 100 % of control | [7] 107 % of control

CCN(C(=O)Nc1ccc(SC)cc1)c1ccccc1
inactive: [11] 103 % of control | [12] 108 % of control

CCCCOc1ccc(NC(=O)N(C)C)cn1
inactive: [8] 94 % of control | [9] 96 % of control | [10] 87 % of control

CN1CN(c2ccccc2)C2(CCN(CCCCCCCl)CC2)C1=O
inactive: dose: 75.0 mg/kg/injection, schedule: Q04DX003 (ip), vehicle: Klucel (hydroxypropylcellulose) (HPC) 95 % of control | dose: 150.0 mg/kg/injection, schedule: Q04DX003 (ip), vehicle: Klucel (hydroxypropylcellulose) (HPC) 96 % of control | dose: 300.0 mg/kg/injection, schedule: Q04DX003 (ip), vehicle: Klucel (hydroxypropylcellulose) (HPC) 95 % of control

O=C1c2ccccc2C(=Cc2ccccc2)c2ccccc21
inactive: [2] 107 % of control | [8] 101 % of control | [4] 107 % of control | [9] 100 % of control | [6] 104 % of control | [10] 92 % of control

O=C(O)c1ccccc1/C=C1/Nc2ccccc2C1=O
inactive: dose: 10.0 mg/kg/injection, schedule: Q01DX001 (ip), vehicle: acetone 102 % of control | dose: 20.0 mg/kg/injection, schedule: Q01DX001 (ip), vehicle: acetone 94 % of control

CCc1ccccc1NC(=O)Nc1cccc(O)c1
inactive: [2] 100 % of control | [4] 89 % of control | [6] 94 % of control

c1ccc(C(c2cccc3ccccc23)N2CCCCC2)cc1 (centres undefined)
inactive: [2] 94 % of control | [8] 108 % of control | [4] 97 % of control | [9] 96 % of control | [6] 95 % of control | [10] 102 % of control

CC1CCCCN1C(=O)Nc1ccc(Cl)cc1[N+](=O)[O-] (centres undefined)
inactive: [11] 100 % of control | [12] 91 % of control | [13] 92 % of control

CC(CCC(C)(C)O)C1CCC2C3C(O)CC4CCCCC4(C)C3CC(O)C12C (centres undefined)
inactive: [8] 89 % of control | [9] 91 % of control | [10] 88 % of control

O=C(NCCCCCCCCCCNC(=O)Nc1cccc(C2=NCC(O)CN2)c1)Nc1cccc(C2=NCC(O)CN2)c1 (centres undefined)
inactive: dose: 5.25 mg/kg/injection, schedule: Q01DX Z (ip), vehicle: carboxymethylcellulose (CMC) 106 % of control | dose: 10.5 mg/kg/injection, schedule: Q01DX Z (ip), vehicle: carboxymethylcellulose (CMC) 117 % of control | dose: 21.0 mg/kg/injection, schedule: Q01DX Z (ip), vehicle: carboxymethylcellulose (CMC) 103 % of control | dose: 42.0 mg/kg/injection, schedule: Q01DX Z (ip), vehicle: carboxymethylcellulose (CMC) 97 % of control

Cn1c(O)c(N=NC(N)=S)c2ccccc21
inactive: dose: 3.0 mg/kg/injection, schedule: Q01DX015 (ip), vehicle: carboxymethylcellulose (CMC) 96 % of control | dose: 6.0 mg/kg/injection, schedule: Q01DX015 (ip), vehicle: carboxymethylcellulose (CMC) 103 % of control | dose: 12.0 mg/kg/injection, schedule: Q01DX015 (ip), vehicle: carboxymethylcellulose (CMC) 97 % of control | dose: 25.0 mg/kg/injection, schedule: Q01DX015 (ip), vehicle: carboxymethylcellulose (CMC) 106 % of control | dose: 50.0 mg/kg/injection, schedule: Q01DX015 (ip), vehicle: carboxymethylcellulose (CMC) 103 % of control | dose: 62.5 mg/kg/injection, schedule: Q01DX015 (ip), vehicle: carboxymethylcellulose (CMC) 107 % of control

O=C(CC(Cl)(C(F)(F)F)C(F)(F)F)c1cccc([N+](=O)[O-])c1
inactive: dose: 12.5 mg/kg/injection, schedule: Q01DX009 (ip), vehicle: saline with Tween-80 91 % of control | dose: 12.5 mg/kg/injection, schedule: Q04DX003 (ip), vehicle: saline with Tween-80 96 % of control | [14] 96 % of control | dose: 25.0 mg/kg/injection, schedule: Q04DX003 (ip), vehicle: saline with Tween-80 98 % of control | [15] 96 % of control | dose: 50.0 mg/kg/injection, schedule: Q04DX003 (ip), vehicle: saline with Tween-80 100 % of control
